Test results reported in patent US9469650B2, “Melampomagnolide B derivatives” (BOARD OF TRUSTEES OF THE UNIVERSITY OF ARKANSAS, priority 2013, dated 2016).

How the values were obtained:
HL-60(TB) = test: cells; conditions: Homo sapiens; for GI50: HL-60; for CC50: HL-60, read-out: LC50; for IC (TGI): HL-60, read-out: TGI
[1] = system: panel of 60 human tumor cell lines; test: panel of 60 human tumor cell lines, whole panel or sub-panel (single concentration screen, summaries); format: cell-based; conditions: for inhibition at 10 µM: single concentration of 10^−5 M, read-out: growth inhibition in at least eight human cancer cell lines from the panel; for GI50: range over 6a and 6e
MALME-3M = test: panel of 60 human tumor cell lines, growth inhibition (Melanoma); conditions: for GI50 / CC50: Homo sapiens, Malme-3M; for CC50: read-out: LC50; for TGI / Percent Growth: MALME-3M
RPMI-8226 = test: panel of 60 human tumor cell lines, growth inhibition (Leukemia); conditions: for GI50 / CC50: Homo sapiens; for CC50: RPMI-8226, read-out: LC50
[2] = RPMI-8226, Log10 Concentration −4.0
[3] = RPMI-8226, Log10 Concentration −5.0
[4] = RPMI-8226, Log10 Concentration −6.0
[5] = RPMI-8226, Log10 Concentration −7.0
[6] = RPMI-8226, Log10 Concentration −8.0

Excerpt for AML 052308 cells: Derivatives were screened for antileukemic activity against AML cells in culture (See FIGS. 1-7).

SMILES | GI50 (HL-60(TB)) | CC50 (HL-60(TB)) | IC (TGI) (HL-60(TB)) | cytotoxicity compared to MMB (AML 052308 cells) | inhibition at 10 µM [1] | GI50 (MALME-3M) | CC50 (MALME-3M) | Percent Growth (MALME-3M; Log10 Concentration −4.0) | Percent Growth (MALME-3M; Log10 Concentration −5.0) | Percent Growth (MALME-3M; Log10 Concentration −6.0) | Percent Growth (MALME-3M; Log10 Concentration −7.0) | Percent Growth (MALME-3M; Log10 Concentration −8.0) | GI50 (RPMI-8226; RPMI-8226) | CC50 (RPMI-8226) | Percent Growth (RPMI-8226; [2]) | Percent Growth (RPMI-8226; [3]) | Percent Growth (RPMI-8226; [4]) | Percent Growth (RPMI-8226; [5]) | Percent Growth (RPMI-8226; [6]) | TGI (RPMI-8226; RPMI-8226) | other results
C=C1C(=O)O[C@H]2[C@H]1CC/C(COC(=O)NCCN1CCCC1)=C\CC[C@@]1(C)O[C@@H]21 [JVM 59, ((1aR,7aS,10aS,10bS,E)-1a-methyl-8-methylene-9-oxo-1a,2,3,6,7,7a,8,9,10a,10b-decahydrooxireno[2′,3′:9,10]cyclodeca[1,2-b]furan-5-yl)methyl-(2-(pyrrolidin-1-yl)ethyl)carbamate] | 4.15 µM | 70.3 µM | 18.3 µM | almost equal cytotoxicity to MMB | > 60% | 4.18 µM | 55.2 µM | −74% | 18% | 102% | 93% | 91% | 8.71 µM | 97.1 µM | −51% | 47% | 97% | 98% | 184% | – | TGI (MALME-3M; five dose): 1.59E−5; TGI (RPMI-8226; RPMI-8226, five dose): 3.01E−5
C=C1C(=O)O[C@H]2[C@H]1CC/C(COC(=O)NCCc1ccccn1)=C\CC[C@@]1(C)O[C@@H]21 [JVM 61, ((1aR,7aS,10aS,10bS,E)-1a-methyl-8-methylene-9-oxo-1a,2,3,6,7,7a,8,9,10a,10b-decahydrooxireno[2′,3′:9,10]cyclodeca[1,2-b]furan-5-yl)methyl-(2-(pyridin-2-yl)ethyl)carbamate] | – | – | – | almost equal cytotoxicity to MMB | > 60% | 7.52 µM | 84.9 µM | −57% | 44% | 95% | 100% | 114% | 8.2 µM | > 100 µM | −32% | 45% | 100% | 100% | 102% | 3.88E−5 | TGI (MALME-3M): 2.71E−5
C=C1C(=O)O[C@H]2[C@H]1CC/C(COC(=O)Nc1n[nH]c(SC)n1)=C\CC[C@@]1(C)O[C@@H]21 [JVM 64, ((1aR,7aS,10aS,10bS,E)-1a-methyl-8-methylene-9-oxo-1a,2,3,6,7,7a,8,9,10a,10b-decahydrooxireno[2′,3′:9,10]cyclodeca[1,2-b]furan-5-yl)methyl-(5-(methylthio)-1H-1,2,4-triazol-3-yl)carbamate] | – | – | – | more potent than MMB | > 60% | 2.32 µM | 78.8 µM | −54% | −12% | 66% | 99% | 104% | 2.57 µM | > 100 µM | −46% | −11% | 93% | 100% | 101% | – | fold more cytotoxic than MMB (AML 052308 cells): 3 fold; GI50 ([1]; sub-panel breast cancer): 0.57 to 3.07 µM; GI50 ([1]; sub-panel colon cancer): 1.12 to 2.06 µM; GI50 ([1]; sub-panel melanoma): 0.46 to 2.84 µM; GI50 ([1]; sub-panel non-small cell lung cancer): 0.65 to 1.45 µM; GI50 ([1]; sub-panel renal cancer): 0.9 to 2.6 µM; TGI (MALME-3M; NCI five dose): 7.53E−6; TGI (RPMI-8226; RPMI-8226, NCI five dose): 7.79E−6
C=C1C(=O)O[C@H]2[C@H]1CC/C(COC(=S)n1ccnc1)=C\CC[C@@]1(C)O[C@@H]21 [JVM 66] | 4.05 µM | 69.5 µM | 16.2 µM | more potent than MMB | > 60% | 14.5 µM | > 100 µM | −32% | 66% | 107% | 95% | 94% | 11 µM | > 100 µM | −31% | 53% | 102% | 103% | 103% | – | fold more cytotoxic than MMB (AML 052308 cells): about 6 fold; fold more potent than parthenolide (AML 052308 cells; AML 052308 cells): 3 fold; TGI (MALME-3M; NCI five dose): 4.74E−5; TGI (RPMI-8226; RPMI-8226, NCI five dose): 4.29E−5
C=C1C(=O)O[C@H]2[C@H]1CC/C(COC(=O)CCC(=O)NCc1ccc(Cl)nc1)=C\CC[C@@]1(C)O[C@@H]21 [JVM 96] | 2.12 µM | > 100 µM | 8.75 µM | – | > 60% | – | – | – | – | – | – | – | 4.16 µM | > 100 µM | −48% | 23% | 94% | 107% | 106% | 2.09E−5 | –
